Where “and” joins values, the source holds several entries; their conditions need not be identical. Equal values may be shown once. Read-outs that look alike come from different tables or passages of the source.
Tested on: panel of 140 standard cancer cell lines
Experiment: ProliFiler-140 cancer cell line screen (CellTiterGlo, 72 h)
Format: cell-based
Method: Incubations were performed for 72 h before automated viability readout with CellTiterGlo (Figure 8).
End of Figure S11 (part 5 of 5): ProliFiler-140 cancer cell line screening for cytotoxicity of the prodrugs.
8-data-point dose response curves from CellTiter-Glo® viability readout.
ProliFiler-140 cell line panel part V

For `COc1cc2cc(C(=O)N3C[C@@H](CCl)c4c3cc(OC(=O)N(CCC(=O)N3CCN(C)CC3)C3CCCCC3)c3ccccc43)[nH]c2c(OC)c1OC` [P-CC60-CBI-TMI], the IC50 (MEC-1 (Blood), read-out: IC50 [M] (ProliFiler-140)) was 8.9e-08 M and 8.89e-08 M, the IC50 (MKN-1 (Stomach), read-out: IC50 [M] (ProliFiler-140)) was 1.5e-06 M and 1.53e-06 M and the IC50 (MKN-45 (Stomach), read-out: IC50 [M] (ProliFiler-140)) was 4.87e-07 M and 4.9e-07 M. The IC50 (MOLM-13 (Blood), read-out: IC50 [M] (ProliFiler-140)) was 6.1e-08 M and 6.05e-08 M, the IC50 (MOLT-4 (Blood), read-out: IC50 [M] (ProliFiler-140)) was 7.6e-08 M and 7.57e-08 M and the IC50 (MV4-11 (Blood), read-out: IC50 [M] (ProliFiler-140)) was 1.2e-08 M and 1.18e-08 M. The IC50 (Mia PaCA 2 (Pancreas), read-out: IC50 [M] (ProliFiler-140)) was 3.75e-07 M and 3.8e-07 M, the IC50 (NALM-6 (Blood), read-out: IC50 [M] (ProliFiler-140)) was 5.58e-08 M and 5.6e-08 M and the IC50 (NCI-H82 (Lung), read-out: IC50 [M] (ProliFiler-140)) was 7.5e-07 M. The IC50 (NCI-H292 (Lung), read-out: IC50 [M] (ProliFiler-140)) was 2.6e-07 M and 2.59e-07 M, the IC50 (NCI-H441 (Lung), read-out: IC50 [M] (ProliFiler-140)) was 2.94e-07 M and 2.9e-07 M and the IC50 (NCI-H838 (Lung), read-out: IC50 [M] (ProliFiler-140)) was 7.5e-07 M and 7.54e-07 M. For the same molecule, the IC50 (NCI-H1048 (Lung), read-out: IC50 [M] (ProliFiler-140)) was 5.9e-08 M and 5.92e-08 M, the IC50 (NCI-H1437 (Lung), read-out: IC50 [M] (ProliFiler-140)) was 3.01e-07 M and 3e-07 M and the IC50 (NCI-H1563 (Lung), read-out: IC50 [M] (ProliFiler-140)) was 1.7e-06 M and 1.69e-06 M. For the same molecule, the IC50 (NCI-H1573 (Lung), read-out: IC50 [M] (ProliFiler-140)) was 1.1e-06 M and 1.07e-06 M, the IC50 (NCI-H1581 (Lung), read-out: IC50 [M] (ProliFiler-140)) was 4.32e-07 M and 4.3e-07 M and the IC50 (NCI-H1703 (Lung), read-out: IC50 [M] (ProliFiler-140)) was 8.1e-07 M and 8.15e-07 M. The IC50 (NCI-H1838 (Lung), read-out: IC50 [M] (ProliFiler-140)) was 8.2e-07 M and 8.19e-07 M, the IC50 (NCI-H2009 (Lung), read-out: IC50 [M] (ProliFiler-140)) was 4.22e-07 M and 4.2e-07 M and the IC50 (NCI-H2110 (Lung), read-out: IC50 [M] (ProliFiler-140)) was 1.4e-07 M and 1.44e-07 M. The IC50 (NCI-H2286 (Lung), read-out: IC50 [M] (ProliFiler-140)) was 1.2e-07 M and 1.25e-07 M, the IC50 (NCI-N87 (Stomach), read-out: IC50 [M] (ProliFiler-140)) was 1.1e-06 M and 1.15e-06 M and the IC50 (OCI-AML3 (Blood), read-out: IC50 [M] (ProliFiler-140)) was 1.3e-07 M and 1.33e-07 M. For the same molecule, the IC50 (OCI-AML5 (Blood), read-out: IC50 [M] (ProliFiler-140)) was 3.4e-08 M and 3.39e-08 M, the IC50 (OCI-LY19 (Blood), read-out: IC50 [M] (ProliFiler-140)) was 1.53e-08 M and 1.5e-08 M and the IC50 (OPM-2 (Blood), read-out: IC50 [M] (ProliFiler-140)) was 6.61e-07 M and 6.6e-07 M. The IC50 (OV56 (Ovary), read-out: IC50 [M] (ProliFiler-140)) was 2.02e-07 M and 2e-07 M, the IC50 (OVCAR-3 (Ovary), read-out: IC50 [M] (ProliFiler-140)) was 1e-06 M and 1.02e-06 M and the IC50 (OVCAR-3, read-out: IC50) was 1e-06 M. The IC50 (OVK18 (Ovary), read-out: IC50 [M] (ProliFiler-140)) was 2e-07 M, the IC50 (P31/FUJ (Blood), read-out: IC50 [M] (ProliFiler-140)) was 1.9e-07 M and 1.88e-07 M and the IC50 (PANC-1 (Pancreas), read-out: IC50 [M] (ProliFiler-140)) was 1.4e-06 M and 1.38e-06 M. For the same molecule, the IC50 (PC3 (Prostate), read-out: IC50 [M] (ProliFiler-140)) was 5.17e-07 M and 5.2e-07 M, the IC50 (PC-9 (Lung), read-out: IC50 [M] (ProliFiler-140)) was 1.1e-07 M and 1.14e-07 M and the IC50 (RERF-LC-Ad2 (Lung), read-out: IC50 [M] (ProliFiler-140)) was 7.8e-07 M and 7.84e-07 M. For the same molecule, the IC50 (RERF-LC-MS (Lung), read-out: IC50 [M] (ProliFiler-140)) was 4.59e-07 M and 4.6e-07 M, the IC50 (RKO (Colon), read-out: IC50 [M] (ProliFiler-140)) was 2.98e-07 M and 3e-07 M and the IC50 (RL95-2 (Endometrium), read-out: IC50 [M] (ProliFiler-140)) was 7.43e-07 M and 7.4e-07 M. The IC50 (RPMI 8226 (Blood), read-out: IC50 [M] (ProliFiler-140)) was 3.38e-07 M and 3.4e-07 M, the IC50 (RPMI 8226, read-out: IC50) was 3.4e-07 M and the IC50 (SCH (Stomach), read-out: IC50 [M] (ProliFiler-140)) was 3.9e-07 M and 3.87e-07 M. The IC50 (SCLC-21H (Lung), read-out: IC50 [M] (ProliFiler-140)) was 1.58e-07 M and 1.6e-07 M, the IC50 (SJSA-1 (Bone), read-out: IC50 [M] (ProliFiler-140)) was 3.78e-07 M and 3.8e-07 M and the IC50 (SK-BR-3 (Breast), read-out: IC50 [M] (ProliFiler-140)) was 3.7e-07 M. The IC50 (SK-ES-1 (Bone), read-out: IC50 [M] (ProliFiler-140)) was 3.35e-08 M and 3.4e-08 M, the IC50 (SK-LU-1 (Lung), read-out: IC50 [M] (ProliFiler-140)) was 1.6e-07 M and 1.62e-07 M and the IC50 (SK-MEL-3 (Skin), read-out: IC50 [M] (ProliFiler-140)) was 1e-06 M and 1.03e-06 M. The IC50 (SK-N-FI (Brain), read-out: IC50 [M] (ProliFiler-140)) was 6.81e-07 M and 6.8e-07 M, the IC50 (SK-N-MC (Brain), read-out: IC50 [M] (ProliFiler-140)) was 1.3e-08 M and 1.33e-08 M and the IC50 (SK-N-SH (Brain), read-out: IC50 [M] (ProliFiler-140)) was 7.5e-07 M and 7.45e-07 M. The IC50 (SK-OV3 (Ovary), read-out: IC50 [M] (ProliFiler-140)) was 4.38e-07 M and 4.4e-07 M, the IC50 (SK-OV3, read-out: IC50) was 4.4e-07 M and the IC50 (SNU840 (Ovary), read-out: IC50 [M] (ProliFiler-140)) was 6.99e-08 M and 7e-08 M. The IC50 (SNU-1 (Stomach), read-out: IC50 [M] (ProliFiler-140)) was 2.3e-07 M and 2.27e-07 M, the IC50 (SNU-16 (Stomach), read-out: IC50 [M] (ProliFiler-140)) was 7.09e-07 M and 7.1e-07 M and the IC50 (SNU-216 (Stomach), read-out: IC50 [M] (ProliFiler-140)) was 1.84e-06 M and 1.8e-06 M. For the same molecule, the IC50 (SU-DHL-5 (Blood), read-out: IC50 [M] (ProliFiler-140)) was 5e-08 M and 4.98e-08 M, the IC50 (SW480 (Colon), read-out: IC50 [M] (ProliFiler-140)) was 3.31e-07 M and 3.3e-07 M and the IC50 (SW620 (Colon), read-out: IC50 [M] (ProliFiler-140)) was 6.99e-07 M and 7e-07 M. For the same molecule, the IC50 (SW948 (Colon), read-out: IC50 [M] (ProliFiler-140)) was 6.79e-07 M and 6.8e-07 M, the IC50 (SW-1783 (Brain), read-out: IC50 [M] (ProliFiler-140)) was 4.78e-07 M and 4.8e-07 M and the IC50 (Saos-2 EC (Bone), read-out: IC50 [M] (ProliFiler-140)) was 2.34e-07 M and 2.3e-07 M. The IC50 (SiHa (Ovary), read-out: IC50 [M] (ProliFiler-140)) was 6.13e-07 M and 6.1e-07 M, the IC50 (T84 (Colon), read-out: IC50 [M] (ProliFiler-140)) was 9.09e-07 M and 9.1e-07 M and the IC50 (T98G (Brain), read-out: IC50 [M] (ProliFiler-140)) was 6.6e-07 M. The IC50 (T-47D (Breast), read-out: IC50 [M] (ProliFiler-140)) was 1e-06 M and 1.04e-06 M, the IC50 (T-47D, read-out: IC50) was 1e-06 M and the IC50 (U2OS (Bone), read-out: IC50 [M] (ProliFiler-140)) was 1.31e-07 M and 1.3e-07 M. For the same molecule, the IC50 (U87MG (Brain), read-out: IC50 [M] (ProliFiler-140)) was 1.2e-06 M and 1.22e-06 M, the IC50 (U118MG (Brain), read-out: IC50 [M] (ProliFiler-140)) was 3.92e-07 M and 3.9e-07 M and the IC50 (U251MG (Brain), read-out: IC50 [M] (ProliFiler-140)) was 2e-06 M. For the same molecule, the IC50 (U-266 (Blood), read-out: IC50 [M] (ProliFiler-140)) was 1.41e-07 M and 1.4e-07 M, the IC50 (U-937 (Blood), read-out: IC50 [M] (ProliFiler-140)) was 7.39e-08 M and 7.4e-08 M and the IC50 (ZR-75-1 (Breast), read-out: IC50 [M] (ProliFiler-140)) was 1.42e-06 M and 1.4e-06 M. For the same molecule, the IC50 (read-out: IC50 [M] (ProliFiler-140)) was 2.36e-07 M and 2.4e-07 M.
